From patent US9186322B2, “Platinum aggregates and process for producing the same” (Insmed Incorporated, priority 2002, dated 2015)

Test: TEM analysis of particles
Assay type: physicochemical
Settings: not complexed with a lipid
Procedure: The white to portion containing mostly light fraction was removed and the yellowish brown fraction on the bottom was used for TEM analysis. A small amount of sample (less than 10 microliters) was placed on the carbon coated grid. The grid was placed on the top of a piece of filter paper and spun an Eppendorf centrifuge for 1 minute at 500 RPM to remove excess water. Samples were air-dried for at least one hour before analysis. If centrifugation was done at too low a speed, water was not removed sufficiently enough, and the sample remained too thick, even after drying, tending to boil when exposed to high vacuum inside the TEM microscope. Centrifugation conditions were adjusted to be gentle enough to avoid damage to the grid or loss of the sample.
The cisplatin solution was briefly sonicated in a bath of room temperature water. At the first signs of cisplatin precipitation and cloudiness, a small volume was taken with a pipette and immediately placed on a carbon coated grid as described in the preceding paragraph.
TEM images were obtained on a Zeiss 910 Transmission Electron Microscope at the Princeton Imaging and Analysis Center, Princeton University, Princeton, N.J. An accelerating high voltage of 100 kV was used, and pictures were captured on a charged couple device (CCD) camera at magnifications of 2000 to 25,000×. […]

Question: With `N.N.[Cl][Pt][Cl]` [cisplatin, cis-diamine-dichloroplatinum (II)] as the compound, how does the crystal length read?
Answer: Its crystal length is 10-20 microns.

Question: And the crystal width?
Answer: The crystal width was “approximately 2 microns”.
